Values of other authors as cited in patent US20260225982A1, “NEW METHOD FOR OZONOLYSIS AND REDUCTIVE QUENCHING OF OZONIDES” (P2 SCIENCE, INC., priority 2023, published 2026).

Tests used:
[1] = species and route not given; given in comparison with oral rat LD50 of glyoxal

O=CC(=O)O [Glyoxylic acid]
rat LD50 (rat; in vivo): 2500 mg/kg

[Cl-].[Na+] [table salt]
LD50 [1]: 3000 mg/kg

O=CC=O [Glyoxal]
oral rat LD50 (rat; oral): 3300 mg/kg
